Source: PMC4206749 (Toxicological Research, 2014)

Experiments:
Assay in all cases: Bacterial reverse mutation assay
Type in all cases: cell-based
[1] = tested on: Salmonella typhimurium strain TA100
[2] = tested on: Salmonella typhimurium strain TA1535
[3] = tested on: Escherichia coli strain (WP2 uvrA); conditions: E. coli
[4] = tested on: Salmonella typhimurium strain TA1537

**Q.** For Oc1ccc(-c2ccc3cc(O)ccc3c2)c(O)c1 [HS-1793, 4-(6-hydroxy-2-naphthyl)-1,3-benzenediol], which “Number of reverse mutants/plate (Mean ± SD)” value ([1]; TA100, with S9 activation, 78.1 μg/plate) is on record?
**A.** The value was 116 ± 13 reverse mutants/plate.

**Q.** And the “Number of reverse mutants/plate (Mean ± SD)” value ([1]; TA100, with S9 activation, 156.3 μg/plate)?
**A.** The value was 109 ± 8 reverse mutants/plate.

**Q.** What about the “Number of reverse mutants/plate (Mean ± SD)” value ([1]; TA100, with S9 activation, 312.5 μg/plate) of the same compound?
**A.** The value was 114 ± 4 reverse mutants/plate.

**Q.** And the “Number of reverse mutants/plate (Mean ± SD)” value ([1]; TA100, with S9 activation, 625 μg/plate)?
**A.** Its value is 106 ± 19 reverse mutants/plate.

**Q.** What about the “Number of reverse mutants/plate (Mean ± SD)” value ([1]; TA100, with S9 activation, 1,250 μg/plate) of the same compound?
**A.** The value was 108 ± 14 reverse mutants/plate.

**Q.** And the “Number of reverse mutants/plate (Mean ± SD)” value ([1]; TA100, with S9 activation, 2,500 μg/plate)?
**A.** The value was 118 ± 11 reverse mutants/plate.

**Q.** And the “Number of reverse mutants/plate (Mean ± SD)” value ([1]; TA100, with S9 activation, 5,000 μg/plate)?
**A.** Its value is 106 ± 9 reverse mutants/plate.

**Q.** What about the “Number of reverse mutants/plate (Mean ± SD)” value ([1]; TA100, without S9 activation, 78.1 μg/plate) of the same compound?
**A.** The value was 121 ± 8 reverse mutants/plate.

**Q.** And the “Number of reverse mutants/plate (Mean ± SD)” value ([1]; TA100, without S9 activation, 156.3 μg/plate)?
**A.** The value was 117 ± 11 reverse mutants/plate.

**Q.** And the “Number of reverse mutants/plate (Mean ± SD)” value ([1]; TA100, without S9 activation, 312.5 μg/plate)?
**A.** Its value is 116 ± 9 reverse mutants/plate.

**Q.** And the “Number of reverse mutants/plate (Mean ± SD)” value ([1]; TA100, without S9 activation, 625 μg/plate)?
**A.** Its value is 124 ± 6 reverse mutants/plate.

**Q.** What about the “Number of reverse mutants/plate (Mean ± SD)” value ([1]; TA100, without S9 activation, 1,250 μg/plate) of the same compound?
**A.** Its value is 107 ± 12 reverse mutants/plate.

**Q.** And the “Number of reverse mutants/plate (Mean ± SD)” value ([1]; TA100, without S9 activation, 2,500 μg/plate)?
**A.** The value was 108 ± 6 reverse mutants/plate.

**Q.** What about the “Number of reverse mutants/plate (Mean ± SD)” value ([1]; TA100, without S9 activation, 5,000 μg/plate) of the same compound?
**A.** The value was 119 ± 12 reverse mutants/plate.

**Q.** What about the “Number of reverse mutants/plate (Mean ± SD)” value ([2]; TA1535, with S9 activation, 78.1 μg/plate) of the same compound?
**A.** The value was 24 ± 3 reverse mutants/plate.

**Q.** What about the “Number of reverse mutants/plate (Mean ± SD)” value ([2]; TA1535, with S9 activation, 156.3 μg/plate) of the same compound?
**A.** The value was 22 ± 3 reverse mutants/plate.

**Q.** What about the “Number of reverse mutants/plate (Mean ± SD)” value ([2]; TA1535, with S9 activation, 312.5 μg/plate) of the same compound?
**A.** The value was 23 ± 4 reverse mutants/plate.

**Q.** What about the “Number of reverse mutants/plate (Mean ± SD)” value ([2]; TA1535, with S9 activation, 625 μg/plate) of the same compound?
**A.** Its value is 21 ± 4 reverse mutants/plate.

**Q.** What about the “Number of reverse mutants/plate (Mean ± SD)” value ([2]; TA1535, with S9 activation, 1,250 μg/plate) of the same compound?
**A.** The value was 21 ± 3 reverse mutants/plate.

**Q.** And the “Number of reverse mutants/plate (Mean ± SD)” value ([2]; TA1535, with S9 activation, 2,500 μg/plate)?
**A.** The value was 20 ± 2 reverse mutants/plate.

**Q.** What about the “Number of reverse mutants/plate (Mean ± SD)” value ([2]; TA1535, with S9 activation, 5,000 μg/plate) of the same compound?
**A.** The value was 21 ± 6 reverse mutants/plate.

**Q.** What about the “Number of reverse mutants/plate (Mean ± SD)” value ([2]; TA1535, without S9 activation, 78.1 μg/plate) of the same compound?
**A.** Its value is 15 ± 2 reverse mutants/plate.

**Q.** And the “Number of reverse mutants/plate (Mean ± SD)” value ([2]; TA1535, without S9 activation, 156.3 μg/plate)?
**A.** The value was 17 ± 2 reverse mutants/plate.

**Q.** And the “Number of reverse mutants/plate (Mean ± SD)” value ([2]; TA1535, without S9 activation, 312.5 μg/plate)?
**A.** The value was 18 ± 2 reverse mutants/plate.

**Q.** What about the “Number of reverse mutants/plate (Mean ± SD)” value ([2]; TA1535, without S9 activation, 625 μg/plate) of the same compound?
**A.** The value was 17 ± 5 reverse mutants/plate.

**Q.** And the “Number of reverse mutants/plate (Mean ± SD)” value ([2]; TA1535, without S9 activation, 1,250 μg/plate)?
**A.** Its value is 17 ± 2 reverse mutants/plate.

**Q.** What about the “Number of reverse mutants/plate (Mean ± SD)” value ([2]; TA1535, without S9 activation, 2,500 μg/plate) of the same compound?
**A.** The value was 18 ± 4 reverse mutants/plate.

**Q.** And the “Number of reverse mutants/plate (Mean ± SD)” value ([2]; TA1535, without S9 activation, 5,000 μg/plate)?
**A.** Its value is 17 ± 3 reverse mutants/plate.

**Q.** And the “Number of reverse mutants/plate (Mean ± SD)” value ([3]; with S9 activation, 78.1 μg/plate)?
**A.** The value was 39 ± 3 reverse mutants/plate.

**Q.** And the “Number of reverse mutants/plate (Mean ± SD)” value ([3]; with S9 activation, 156.3 μg/plate)?
**A.** The value was 40 ± 2 reverse mutants/plate.

**Q.** And the “Number of reverse mutants/plate (Mean ± SD)” value ([3]; with S9 activation, 312.5 μg/plate)?
**A.** The value was 42 ± 3 reverse mutants/plate.

**Q.** And the “Number of reverse mutants/plate (Mean ± SD)” value ([3]; with S9 activation, 625 μg/plate)?
**A.** Its value is 38 ± 3 reverse mutants/plate.

**Q.** And the “Number of reverse mutants/plate (Mean ± SD)” value ([3]; with S9 activation, 1,250 μg/plate)?
**A.** Its value is 37 ± 2 reverse mutants/plate.

**Q.** And the “Number of reverse mutants/plate (Mean ± SD)” value ([3]; with S9 activation, 2,500 μg/plate)?
**A.** The value was 43 ± 3 reverse mutants/plate.

**Q.** And the “Number of reverse mutants/plate (Mean ± SD)” value ([3]; with S9 activation, 5,000 μg/plate)?
**A.** Its value is 40 ± 2 reverse mutants/plate.

**Q.** What about the “Number of reverse mutants/plate (Mean ± SD)” value ([3]; without S9 activation, 78.1 μg/plate) of the same compound?
**A.** Its value is 39 ± 3 reverse mutants/plate.

**Q.** And the “Number of reverse mutants/plate (Mean ± SD)” value ([3]; without S9 activation, 156.3 μg/plate)?
**A.** The value was 33 ± 3 reverse mutants/plate.

**Q.** What about the “Number of reverse mutants/plate (Mean ± SD)” value ([3]; without S9 activation, 312.5 μg/plate) of the same compound?
**A.** The value was 37 ± 2 reverse mutants/plate.

**Q.** And the “Number of reverse mutants/plate (Mean ± SD)” value ([3]; without S9 activation, 625 μg/plate)?
**A.** The value was 36 ± 2 reverse mutants/plate.

**Q.** What about the “Number of reverse mutants/plate (Mean ± SD)” value ([3]; without S9 activation, 1,250 μg/plate) of the same compound?
**A.** The value was 36 ± 3 reverse mutants/plate.

**Q.** What about the “Number of reverse mutants/plate (Mean ± SD)” value ([3]; without S9 activation, 2,500 μg/plate) of the same compound?
**A.** Its value is 32 ± 1 reverse mutants/plate.

**Q.** What about the “Number of reverse mutants/plate (Mean ± SD)” value ([3]; without S9 activation, 5,000 μg/plate) of the same compound?
**A.** The value was 36 ± 2 reverse mutants/plate.

**Q.** What about the “Number of reverse mutants/plate (Mean ± SD)” value ([4]; TA1537, with S9 activation, 78.1 μg/plate) of the same compound?
**A.** The value was 16 ± 2 reverse mutants/plate.

**Q.** And the “Number of reverse mutants/plate (Mean ± SD)” value ([4]; TA1537, with S9 activation, 156.3 μg/plate)?
**A.** The value was 14 ± 2 reverse mutants/plate.

**Q.** What about the “Number of reverse mutants/plate (Mean ± SD)” value ([4]; TA1537, with S9 activation, 312.5 μg/plate) of the same compound?
**A.** Its value is 15 ± 5 reverse mutants/plate.

**Q.** What about the “Number of reverse mutants/plate (Mean ± SD)” value ([4]; TA1537, with S9 activation, 625 μg/plate) of the same compound?
**A.** Its value is 14 ± 2 reverse mutants/plate.

**Q.** And the “Number of reverse mutants/plate (Mean ± SD)” value ([4]; TA1537, with S9 activation, 1,250 μg/plate)?
**A.** The value was 14 ± 1 reverse mutants/plate.

**Q.** And the “Number of reverse mutants/plate (Mean ± SD)” value ([4]; TA1537, with S9 activation, 2,500 μg/plate)?
**A.** Its value is 16 ± 3 reverse mutants/plate.

**Q.** What about the “Number of reverse mutants/plate (Mean ± SD)” value ([4]; TA1537, with S9 activation, 5,000 μg/plate) of the same compound?
**A.** The value was 15 ± 2 reverse mutants/plate.

**Q.** What about the “Number of reverse mutants/plate (Mean ± SD)” value ([4]; TA1537, without S9 activation, 78.1 μg/plate) of the same compound?
**A.** Its value is 14 ± 2 reverse mutants/plate.

**Q.** And the “Number of reverse mutants/plate (Mean ± SD)” value ([4]; TA1537, without S9 activation, 156.3 μg/plate)?
**A.** The value was 17 ± 6 reverse mutants/plate.
